Laboratory results taken from article PMC7310027, “PET imaging of soluble epoxide hydrolase in non-human primate brain with [^18F]FNDP” (EJNMMI Research, 2020).
Like-named read-outs stand apart in the source and are kept apart here.

Legend:
[1] = Baboon plasma radiometabolite analysis by HPLC; type: in vivo, baboon (Papio anubis)
Description: (§1) Measurement of the arterial plasma input function was conducted through collection of ~ 40 blood samples over the course of the 90-min dynamic PET study. […] Samples were then centrifuged at 1200 × g, and the plasma radioactivity was measured with a cross-calibrated PerkinElmer Wizard 2480 automatic gamma counter.
Select plasma samples (0, 5, 10, 20, 30, 60, and 90 min) were analyzed for radiometabolites using high-performance liquid chromatography (HPLC). The modified column-switching HPLC method was used. The HPLC system consisting of a 1260 infinity quaternary pump, a 1260 infinity column compartment module, a 1260 infinity UV detector, and a Raytest GABI Star radiation detector, was operated with OpenLab CDS EZChrom (A.01.04) software. […] After 1 min of isocratic elution, analytical mobile phase composed of 65% acetonitrile and 35% water with 0.06 M trimethylamine (at pH = 7.2, adjusted with phosphoric acid) was applied to direct non-polar compounds trapped on the capture column to an analytical column (Gemini C18(2), 10 μm, 4.6 × 250 mm) and detectors at 2 mL/min. The HPLC system was standardized for mass using non-radioactive FNDP prior to analysis of the blood plasma samples, which were spiked with 5 μL of non-radioactive FNDP at a concentration of 1 mg/mL.

[2] = test system: soluble epoxide hydrolase (sEH); test: Baboon [^18F]FNDP dynamic PET, baseline scans with kinetic modelling (2TCM, 1TCM, Logan); type: in vivo, baboon (Papio anubis)
Description: PET images were acquired using a CPS/CTI high-resolution research tomograph (HRRT), which has an axial resolution (FWHM) of 2.4 mm and in-plane resolution of 2.4–2.8 mm. […] These blocking studies were performed 27 to 43 days apart from each other to ensure full animal recovery. The animals had no food for 12 h prior to each PET study. Anesthesia was induced with intramuscular ketamine (7.5–10 mg/kg) and maintained with a continuous intravenous infusion of propofol at 0.3–0.4 mg/kg/min throughout the PET experiment. One venous catheter was inserted for the radioligand injection, and one arterial catheter was inserted to obtain arterial blood samples. Baboons were intubated to facilitate respiration, and circulatory volume was maintained by constant infusion of isotonic saline. Physiological vital signs including heart rate, blood pressure, electrocardiogram, and oxygen saturation were monitored continuously throughout the study.
The animals were positioned in the PET scanner with the head immobilized using a thermoplastic mask. A 6-min transmission scan was acquired using a rotating ^137Cesium source for generating attenuation maps. The 90-min dynamic PET acquisition was then started in three-dimensional list mode simultaneously with an intravenous bolus injection of [^18F]FNDP. […]
as §1
The 90 min of PET data were binned into 30 frames: four 15-s, four 30-s, three 1-min, two 2-min, five 4 -min, and 12 5-min frames. Images were reconstructed using the 3D iterative ordered subset expectation maximization (OS-EM) algorithm (with six iterations and 16 subsets) with correction for radioactive decay, deadtime, attenuation, scatter, and randoms. The reconstructed image space consisted of cubic voxels, each 1.22 mm^3 in size, and spanning dimensions of 31 cm × 31 cm (transaxially) and 25 cm (axially).
The software package PMOD (v3.7, PMOD Technologies Ltd, Zurich, Switzerland) was used for the image processing and subsequent kinetic analysis. The previously acquired T1-weighted brain MRI images for the baboon were co-registered to the reconstructed dynamic PET images acquired in this study. Through manually matching the co-registered MRI to the INIA19 Template and NeuroMaps Atlas for Primate Brain Image Parcellation and Spatial Normalization, 13 representative baboon brain volumes of interest (VOIs) were defined, […] Regional time activity curves (TACs) were then generated for both baseline and blocking PET scans using those VOIs.
Next, kinetic modeling was performed based on the TACs and the metabolite-corrected arterial plasma input functions. For brain uptake, the primary outcome measure was the regional brain distribution volume (VT) of [^18F]FNDP, defined as concentration of the radiotracer in regional tissue relative to that in blood at equilibrium. We evaluated which compartmental models (e.g., two-tissue-three-compartment (2TCM) or one-tissue-two-compartment (1TCM)) best described the [^18F]FNDP PET data, using statistical model selection criteria, such as the Akaike information criterion. For comparison, the Logan graphical method (t* = 30 min) was also used to compute regional VT, as well as generating voxel-wise parametric images of VT [31].

[3] = Amygdala, baseline, mean ± SD of 3 baboons
[4] = Caudate, baseline, mean ± SD of 3 baboons
[5] = Cerebellum, baseline, mean ± SD of 3 baboons
[6] = Corpus callosum, baseline, mean ± SD of 3 baboons
[7] = Frontal gyrus, baseline, mean ± SD of 3 baboons
[8] = Globus pallidus, baseline, mean ± SD of 3 baboons
[9] = Hippocampus, baseline, mean ± SD of 3 baboons
[10] = Hypothalamus, baseline, mean ± SD of 3 baboons
[11] = Insula, baseline, mean ± SD of 3 baboons
[12] = Occipital cortex, baseline, mean ± SD of 3 baboons
[13] = Putamen, baseline, mean ± SD of 3 baboons
[14] = Temporal gyrus, baseline, mean ± SD of 3 baboons
[15] = Thalamus, baseline, mean ± SD of 3 baboons
[16] = White matter, baseline, mean ± SD of 3 baboons

For `O=C(NCCC(c1ccccc1)c1ccccc1)c1ccc([18F])nc1` [[^18F]FNDP, N-(3,3-diphenylpropyl)-6-^18F-fluoronicotinamide], the “fraction of radioactivity by HPLC (Met-1, Met-2, parent)” value (shortened to “fraction of radioactivity by HPLC”) ([1]; Baboon blood (10 min)) was 77.0 ± 3.6%, the “fraction of radioactivity by HPLC” value ([1]; Baboon blood (30 min)) was 46.5 ± 6.4% and the “fraction of radioactivity by HPLC” value ([1]; Baboon blood (60 min)) was 28.3 ± 9.3%. For the same compound, the “fraction of radioactivity by HPLC” value ([1]; Baboon blood (90 min)) was 21.8 ± 7.0%, the “suggested fraction of brain radioactivity that is parent” value ([1]; baboon brain, extrapolated) was greater than 95% and the “1TCM K1” value [2, 3] was 0.14 ± 0.03 mL/cm^3/min. The “2TCM K1” value [2, 3] was 0.14 ± 0.03 mL/cm^3/min, the “1TCM K1” value [2, 4] was 0.21 ± 0.05 mL/cm^3/min and the “2TCM K1” value [2, 4] was 0.21 ± 0.05 mL/cm^3/min. The “1TCM K1” value [2, 5] was 0.18 ± 0.03 mL/cm^3/min, the “2TCM K1” value [2, 5] was 0.19 ± 0.03 mL/cm^3/min and the “1TCM K1” value [2, 6] was 0.15 ± 0.03 mL/cm^3/min. For the same compound, the “2TCM K1” value [2, 6] was 0.17 ± 0.03 mL/cm^3/min, the “1TCM K1” value [2, 7] was 0.16 ± 0.04 mL/cm^3/min and the “2TCM K1” value [2, 7] was 0.18 ± 0.04 mL/cm^3/min. For the same compound, the “1TCM K1” value [2, 8] was 0.17 ± 0.03 mL/cm^3/min, the “2TCM K1” value [2, 8] was 0.19 ± 0.03 mL/cm^3/min and the “1TCM K1” value [2, 9] was 0.14 ± 0.03 mL/cm^3/min. The “2TCM K1” value [2, 9] was 0.15 ± 0.04 mL/cm^3/min, the “1TCM K1” value [2, 10] was 0.14 ± 0.03 mL/cm^3/min and the “2TCM K1” value [2, 10] was 0.15 ± 0.03 mL/cm^3/min. The “1TCM K1” value [2, 11] was 0.20 ± 0.05 mL/cm^3/min, the “2TCM K1” value [2, 11] was 0.22 ± 0.05 mL/cm^3/min and the “1TCM K1” value [2, 12] was 0.17 ± 0.06 mL/cm^3/min. For the same compound, the “2TCM K1” value [2, 12] was 0.18 ± 0.06 mL/cm^3/min, the “1TCM K1” value [2, 13] was 0.22 ± 0.05 mL/cm^3/min and the “2TCM K1” value [2, 13] was 0.23 ± 0.05 mL/cm^3/min. For the same compound, the “1TCM K1” value [2, 14] was 0.16 ± 0.03 mL/cm^3/min, the “2TCM K1” value [2, 14] was 0.17 ± 0.03 mL/cm^3/min and the “1TCM K1” value [2, 15] was 0.16 ± 0.03 mL/cm^3/min. For the same compound, the “2TCM K1” value [2, 15] was 0.17 ± 0.03 mL/cm^3/min, the “1TCM K1” value [2, 16] was 0.17 ± 0.04 mL/cm^3/min and the “2TCM K1” value [2, 16] was 0.18 ± 0.04 mL/cm^3/min. The “time of peak of regional brain TACs post-injection” value ([2]; all regions at baseline) was less than 15 min, the “K1 (2TCM)” value ([2]; baseline scan, Baboon3) was 0.151 ± 0.021 mL/cm^3/min and the Kp ([2]; male, baboon (Papio anubis), brain (cerebellum), intravenous, Cerebellum, baseline, mean ± SD of 3 baboons, read-out: 1TCM VT) was 7.33 ± 0.45. For the same compound, the Kp ([2]; male, baboon (Papio anubis), brain (cerebellum), intravenous, Cerebellum, baseline, mean ± SD of 3 baboons, read-out: 2TCM VT) was 7.66 ± 0.72, the Kp ([2]; male, baboon (Papio anubis), brain (globus pallidus), intravenous, Globus pallidus, baseline, mean ± SD of 3 baboons, read-out: 1TCM VT) was 9.07 ± 0.66 and the Kp ([2]; male, baboon (Papio anubis), brain (globus pallidus), intravenous, Globus pallidus, baseline, mean ± SD of 3 baboons, read-out: 2TCM VT) was 9.74 ± 1.02. The Kp ([2]; male, baboon (Papio anubis), brain (globus pallidus), intravenous, Globus pallidus, baseline, mean ± SD of 3 baboons, read-out: Logan VT) was 9.44 ± 0.92, the Kp ([2]; male, baboon (Papio anubis), brain (occipital cortex), intravenous, Occipital cortex, baseline, mean ± SD of 3 baboons, read-out: 1TCM VT) was 7.39 ± 1.56 and the Kp ([2]; male, baboon (Papio anubis), brain (occipital cortex), intravenous, Occipital cortex, baseline, mean ± SD of 3 baboons, read-out: 2TCM VT) was 7.82 ± 1.82. It also gave a Kp ([2]; male, baboon (Papio anubis), brain (occipital cortex), intravenous, Occipital cortex, baseline, mean ± SD of 3 baboons, read-out: Logan VT) of 7.67 ± 1.63, a total distribution volume (VT, Logan) ([2]; male, baboon (Papio anubis), brain (range over regions), intravenous, baseline, 3 baboons) of 7.63 to 13.3 and a Kp ([2]; male, baboon (Papio anubis), brain (white matter), intravenous, White matter, baseline, mean ± SD of 3 baboons, read-out: 1TCM VT) of 8.43 ± 0.89. The Kp ([2]; male, baboon (Papio anubis), brain (white matter), intravenous, White matter, baseline, mean ± SD of 3 baboons, read-out: 2TCM VT) was 9.29 ± 1.08, the Kp ([2]; male, baboon (Papio anubis), brain (white matter), intravenous, White matter, baseline, mean ± SD of 3 baboons, read-out: Logan VT) was 9 ± 1.03 and the Kp ([2]; male, baboon (Papio anubis), brain, corpus callosum, intravenous, Corpus callosum, baseline, mean ± SD of 3 baboons, read-out: 1TCM VT) was 8.32 ± 0.91. It also gave a Kp ([2]; male, baboon (Papio anubis), brain, corpus callosum, intravenous, Corpus callosum, baseline, mean ± SD of 3 baboons, read-out: 2TCM VT) of 9.28 ± 0.9, a Kp ([2]; male, baboon (Papio anubis), brain, corpus callosum, intravenous, Corpus callosum, baseline, mean ± SD of 3 baboons, read-out: Logan VT) of 9.06 ± 0.99 and a Kp ([2]; male, baboon (Papio anubis), brain, frontal gyrus, intravenous, Frontal gyrus, baseline, mean ± SD of 3 baboons, read-out: 1TCM VT) of 9.58 ± 0.6. It also gave a Kp ([2]; male, baboon (Papio anubis), brain, frontal gyrus, intravenous, Frontal gyrus, baseline, mean ± SD of 3 baboons, read-out: 2TCM VT) of 10.5 ± 1.01, a Kp ([2]; male, baboon (Papio anubis), brain, frontal gyrus, intravenous, Frontal gyrus, baseline, mean ± SD of 3 baboons, read-out: Logan VT) of 10.3 ± 0.91 and a Kp ([2]; male, baboon (Papio anubis), brain, intravenous, baboon brain, baseline, read-out: baseline VT) of 10.9 ± 2.4. The Kp ([2]; male, baboon (Papio anubis), brain, temporal gyrus, intravenous, Temporal gyrus, baseline, mean ± SD of 3 baboons, read-out: Logan VT) was 9.52 ± 0.57.
